According to patent US20130115589A1, “Pharmaceutical Composition for Treatment and Prevention of Herpes Virus Infections” (THE UNIVERSITY OF TOKYO, priority 2010, published 2013):
Read-outs that look alike come from different tables or passages of the source.

What was measured:
HSV-1 GFP [1] = assay type: cell-based, Herpes simplex virus 1 (HSV-1); conditions: for HSV entry into Vero cells (relative fluorescence intensity): 30 minutes pretreatment, ML-7 20 μM, ACC 40 μM
influenza virus [2] = assay type: cell-based
HSV-1 GFP [3] = assay type: cell-based, Herpes simplex virus 1 (HSV-1)
influenza virus [4] = assay type: cell-based; remark: listed apart in the source
HSV-1(F) = test: Murine corneal infection model; assay type: in vivo, ICR mice
Experimental: After the cornea of ICR mice (female/5-week-old) was slightly injured with an injection needle, a medium containing or not containing 20 μM ML-7 was instilled in the eye twice with an interval of 10 minutes. After incubation for 10 minutes, an HSV-1(F) strain was inoculated at 5×10^5 PFU/eye. The virus titer in the tear, symptoms of keratitis, and survival of mice were studied.
After the cornea of 28 ICR mice (female/5-week-old) per group was injured with an injection needle, a 20 μM medium containing or not containing ML-7 and 5×10^5 HSV-1(F) diluted in Medium199 were simultaneously instilled in their eye, followed by observation for 21 days.
After the cornea of 28 ICR mice (female/5-week-old) per group was injured with an injection needle, a 50 μM BAPTA-AM was instilled in their eye twice with an interval of 10 minutes. After incubation for 10 minutes, 5×10^5 HSV-1(F) diluted in Medium 199 was instilled in their eye, followed by observation for 21 days. In Mock-treated group, 0.2% DMSO in Medium 199 was used instead of 50 μM BAPTA-AM.

NMHC-IIA = assay type: cell-based; conditions: Vero cells pretreated with ML-7
HSV-2 GFP = HSV-2 GFP infection of Vero cells, flow cytometry; assay type: cell-based, Herpes simplex virus 2; conditions: Vero cells pretreated with ML-7
phosphorylation of RLC = test: Phosphorylation of RLC in Vero cells exposed to HSV-1, immunoblotting; conditions: 20 μM ML-7, MOI=50
NMHC-IIB = NMHC-IIB at the cell surface of HSV-1(F)-infected Cos-1 cells, biotinylation, avidin precipitation, immunoblotting; conditions: Cos-1 cells pretreated with ML-7, wild-type HSV-1(F)

`Nc1nc2c(ncn2COCCO)c(=O)[nH]1` [ACC, acyclovir] was tested. Which “HSV entry into Vero cells (relative fluorescence intensity)” value (HSV-1 GFP [1]; HSV-1 GFP MOI=1, six hours after infection) did it give?
Its value is “not inhibited”.

For `CC(=O)OCOC(=O)CN(CC(=O)OCOC(C)=O)c1ccccc1OCCOc1ccccc1N(CC(=O)OCOC(C)=O)CC(=O)OCOC(C)=O` [BAPTA-AM], which “mean fluorescence intensity (MFI), HSV-1 GFP” value (HSV-1 GFP [1]) is on record?
The value was “decreased in a BAPTA-AM concentration dependent manner”.

What about the “relative MFI, influenza virus” value (influenza virus [2]) of the same compound?
Its value is “not influenced”.

What about the “MFI, HSV-1 GFP” value (HSV-1 GFP [3]) of the same compound?
The value was “decreased in a BAPTA-AM concentration dependent manner”.

And the “influence on influenza virus infection” value (influenza virus [4]; Cos-1 cells, BAPTA-AM)?
The value was “not observed”.

What about the survival rate (HSV-1(F); 50 μM BAPTA-AM instilled before infection, observation 21 days, vs Mock-treated group) of the same compound?
Its survival rate is “significantly high”.

Which “Infection with HSV-1 GFP” value (HSV-1 GFP [1]) does the source give for `O=S(=O)(c1cccc2c(I)cccc12)N1CCCNCC1` [ML-7] here?
The value was “inhibited dose-dependently”.

What about the “HSV entry into Vero cells (relative fluorescence intensity)” value (HSV-1 GFP [1]; […]) of the same compound?
The value was “inhibited”.

And the influenza virus infection (influenza virus [2]; Vero cells pretreated with ML-7)?
The influenza virus infection was “not influenced”.

And the “increase in the concentration of NMHC-IIA in the vicinity of the cell membrane upon virus entry” value (NMHC-IIA)?
Its value is “inhibited”.

And the HSV-1 infection (HSV-1 GFP [3])?
The HSV-1 infection was “dose-independently inhibited”.

And the influenza virus infection (influenza virus [4]; Cos-1 cells pretreated with ML-7)?
The influenza virus infection was “not influenced”.

And the “HSV-2 GFP infection” value (HSV-2 GFP)?
Its value is “dose-independently inhibited”.

And the “survival rate of mice” value (HSV-1(F); 20 μM ML-7 instilled before infection)?
Its value is “significant increase”.

And the symptoms of keratitis (HSV-1(F); 20 μM ML-7 instilled before infection, after five days, vs untreated mice)?
Its symptoms of keratitis is “significant decrease”.

What about the “virus titer in the tear” value (HSV-1(F); 20 μM ML-7 instilled before infection, two days after virus inoculation, vs untreated mice) of the same compound?
Its value is “significant decrease”.

And the “survival rate of mice” value (HSV-1(F); 20 μM ML-7 instilled simultaneously with HSV-1(F), observation 21 days)?
Its value is “further significant increase”.

And the “enhancement of phosphorylation of RLC by HSV-1 infection” value (phosphorylation of RLC)?
The value was “inhibits this enhancement”.

What about the “concentration of NMHC-IIB in the vicinity of the cell membrane” value (NMHC-IIB) of the same compound?
Its value is “decreased significantly”.
